Source: US20250213542A1, “DEVICES AND METHODS FOR DELIVERING SYNERGISTIC ACTIVE AGENTS TO TARGET SITES” (IRRIMAX Corporation, priority 2023, published 2025)
Where two headings read alike, the source gives them in different places.

Legend:
Format in all cases: cell-based
E. coli = test: Chequerboard assay, FIC and synergy analysis; conditions: Escherichia coli
Procedure: (§1) Chlorhexidine gluconate (CHG) and octenidine dihydrochloride (OCT) were analyzed by chequerboard assay with each test organism to determine potential additive, synergistic, and antagonistic activity. The test organisms S. aureus, P. aeruginosa, and E. coli were tested at ranges of chlorhexidine gluconate (0.122-15.625 μg/ml, 1.25-160 μg/ml, and 0.125-16 μg/ml, respectively) and octenidine dihydrochloride (0.029-3.75 μg/mL, 0.029-3.75 μg/mL, and 0.029-3.75 μg/mL, respectively). FIC was calculated by the following Equation 2: […]

S. aureus = test: Chequerboard assay, FIC and synergy analysis; conditions: Staphylococcus aureus
Procedure: as §1

P. aeruginosa = test: Chequerboard assay, FIC and synergy analysis; conditions: Pseudomonas aeruginosa
Procedure: as §1

S. aureus (ATCC 6538) [1] = test: Minimum inhibitory concentration determination, serial 2-fold dilution; conditions: Staphylococcus aureus, ATCC6538, read-out: Average Growth Inhibition (%)
Procedure: (§2) The minimal inhibitory concentration (MIC, the minimum inhibitory concentration required for 90% growth reduction) of octenidine was determined against S. aureus (ATCC 6538), P. aeruginosa (ATCC 15442), and E. coli (ATCC BAA 1427) by serial 2-fold dilution experiments. A solution of chlorhexidine (0.025% w/w) was used as a positive control and comparator.

E. coli (ATCC BAA 1427) [2] = test: as above; conditions: Escherichia coli, BAA1427, 250 μg/mL (0.025% w/w), positive control, read-out: Average Growth Inhibition (%)
Procedure: as §2

[3] = tested on: P. aeruginosa (ATCC 15442); test: as above; conditions: Pseudomonas aeruginosa, ATCC15442, read-out: Average Growth Inhibition (%)
Procedure: as §2

S. aureus (ATCC 6538) [4] = test: Minimal bactericidal concentration determination, serial 2-fold dilution; conditions: 250 μg/mL (0.025% w/w), positive control
Procedure: (§3) The minimal bactericidal concentration (MBC) of octenidine dihydrochloride was determined against S. aureus (ATCC 6538), P. aeruginosa (ATCC 15442), and E. coli (ATCC BAA 1427) by serial 2-fold dilution experiments. A solution of chlorhexidine (0.025% w/w) was used as a positive control and comparator.

E. coli (ATCC BAA 1427) [5] = test: as above
Procedure: as §3

[6] = tested on: P. aeruginosa (ATCC 15442); test: as above; conditions: 250 μg/mL (0.025% w/w), positive control
Procedure: as §3

[7] = in presence of OCT, read-out: MIC of CHG in Presence of OCT

N=C(NCCCCCCNC(=N)NC(=N)Nc1ccc(Cl)cc1)NC(=N)Nc1ccc(Cl)cc1 [Chlorhexidine gluconate, 1-[amino-[6-[amino-[amino-(4-chlorophenyl)amino-methylidene]amino-methylidene]aminohexylimino]methyl]imino-N-(4-chlorophenyl)-methanediamine; (2R,3S,4R,5R)-2,3,4,5,6-pentahydroxyhexanoic acid.]
MIC (E. coli; [7]): 8 µg/mL | MIC (E. coli; read-out: MIC of CHG Alone): 16 µg/mL | MIC (S. aureus; [7]): 2 µg/mL | MIC (S. aureus; read-out: MIC of CHG Alone): 4 µg/mL | MIC (P. aeruginosa; read-out: MIC of CHG Alone (μg/mL)): 32 µg/mL | MIC (P. aeruginosa; read-out: MIC of CHG in Presence of OCT (μg/mL)): 16 µg/mL | inhibition at 250 µg/mL (S. aureus (ATCC 6538) [1]): 121% | inhibition at 250 µg/mL (E. coli (ATCC BAA 1427) [2]): 63% | inhibition at 250 µg/mL [3]: 81% | CFU/mL (S. aureus (ATCC 6538) [4]): 0 CFU/mL | Number of Colonies (S. aureus (ATCC 6538) [4]): 0 | Number of Colonies (S. aureus (ATCC 6538) [4]; listed as chlorhexidine): no colonies | CFU/mL (E. coli (ATCC BAA 1427) [5]): 0 CFU/mL | Number of Colonies (E. coli (ATCC BAA 1427) [5]): 0 | Number of Colonies (E. coli (ATCC BAA 1427) [5]; E. coli (ATCC BAA 1427), 250 μg/mL (0.025% w/w), positive control): no colonies | CFU/mL [6]: 0 CFU/mL | Number of Colonies [6]: 0 | Number of Colonies ([6]; listed as chlorhexidine): no colonies
